The values that follow come from ChEMBL document CHEMBL1201862, “PubChem BioAssay data set” (2004).

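Method: 48-hour compound exposure of cells in 96-well plates, five concentrations, linear interpolation of endpoints. Here, GI50 denotes the concentration required for 50% inhibition of growth.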 Activity calls are given as the source filed them. No stated cut-off is given here; in the data, active = GI50 up to about 1.1 µM and inactive = higher.

Among the test systems are BT-549; T47D; KM12; MDA-N; HCT-15; DU-145; SF-295; SK-MEL-5; HOP-92; UACC-62; RPMI-8226; OVCAR-4; HCT-116; SF-268; UACC-257; MDA-MB-435; SNB-75; SK-MEL-2; HCC 2998.
Holding throughout (assay): growth of human tumour cells (NCI), 48 h

As to `Nc1nc(N)c2cc(Sc3ccc4ccccc4c3)ccc2n1`, the GI50 with BT-549 is 3.61 µM (inactive); in the experiment on T47D it was 2.12 µM (inactive); in the experiment on KM12 it was 1.98 µM (inactive); in the experiment on MDA-N, 0.733 µM (active); with HCT-15 it was 0.643 µM; in the experiment with DU-145, 5.79 µM (inactive). For the same compound, the GI50 is 0.509 µM (active) in the experiment with SF-295; 0.845 µM (active) in the experiment with SK-MEL-5; 1.14 µM (inactive) in the experiment on HOP-92; 0.568 µM (active) in the experiment on UACC-62; 2.14 µM (inactive) with RPMI-8226; 4.18 µM (inactive) in the experiment on OVCAR-4. Moreover, the GI50 is 1.17 µM (inactive) in the experiment on HCT-116; 3.11 µM (inactive) in the experiment with SF-268; 1.58 µM (inactive) in the experiment on UACC-257; 0.687 µM (active) in the experiment with MDA-MB-435; 14.4 µM (inactive) in the experiment on SNB-75.

Consider `CSc1ncnc2c1ncn2CC(=O)C1CCC2C3CCC4=CC(=O)CCC4(C)C3CCC12C` (stereo not drawn), for which the GI50 was 2.58 µM (inactive) in the experiment with BT-549; 1.91 µM (inactive) in the experiment on T47D; 2.84 µM (inactive) with KM12; 3.07 µM (inactive) in the experiment on MDA-N; 4.56 µM in the experiment with HCT-15; 13.9 µM (inactive) in the experiment on DU-145. The GI50 in the experiment with SF-295 was 3.21 µM (inactive); in the experiment on SK-MEL-2, 2.98 µM (inactive); in the experiment on SK-MEL-5, 2.04 µM (inactive); in the experiment with HOP-92, 14.8 µM (inactive); with UACC-62 it was 3.21 µM (inactive); in the experiment on RPMI-8226 it was 1.45 µM (inactive). Moreover, the GI50 is 3.49 µM (inactive) with OVCAR-4; 4.15 µM (inactive) in the experiment with HCT-116; 14.6 µM (inactive) in the experiment with SF-268; 2.05 µM (inactive) with UACC-257; 2.96 µM (inactive) with MDA-MB-435; 5.19 µM (inactive) in the experiment with SNB-75.

As to `COc1ccc(C2SC(=N)Nc3c2c(C)nn3C(=O)c2ccccc2O)cc1` (stereo not drawn), the GI50 in the experiment with BT-549 was 1.16 µM (inactive); in the experiment with T47D, 8.99 µM (inactive); in the experiment with KM12 it was 2.89 µM (inactive); with MDA-N, 0.843 µM (active); with HCC 2998, > 10 µM (inactive); with HCT-15, 4.58 µM. Also, the GI50 was 3.98 µM (inactive) with SF-295; 2.57 µM (inactive) in the experiment with SK-MEL-2; 2.59 µM (inactive) with SK-MEL-5; > 10 µM (inactive) in the experiment on HOP-92; 0.583 µM (active) with UACC-62; 1.56 µM (inactive) in the experiment with RPMI-8226. Moreover, the GI50 in the experiment on OVCAR-4 was 1.9 µM (inactive); with HCT-116, 0.655 µM (active); with SF-268, 0.885 µM (active); in the experiment with UACC-257, 2.81 µM (inactive); in the experiment on MDA-MB-435, 0.455 µM (active); with SNB-75, 0.308 µM (active).

Take `CC(C)=NN/C(=N\c1ccc(Cl)cc1)NS(=O)(=O)c1ccc(Oc2cccc(Cl)c2C#N)cc1`: the GI50 in the experiment with BT-549 is > 100 µM (inactive); in the experiment with T47D, > 100 µM (inactive); in the experiment with KM12, > 100 µM (inactive); with MDA-N it was > 100 µM (inactive); in the experiment with HCT-15, > 100 µM; with DU-145 it was > 100 µM (inactive). The GI50 in the experiment on SF-295, with SK-MEL-2, in the experiment on SK-MEL-5, in the experiment on HOP-92, in the experiment with UACC-62 and with RPMI-8226 was > 100 µM (inactive) throughout. The GI50 in the experiment with OVCAR-4, in the experiment with HCT-116, with SF-268, in the experiment on UACC-257 and in the experiment with MDA-MB-435 was > 100 µM (inactive) each time.

Consider `COC(=O)C1(C)CCC(c2ccc(C)cc2)=C(CC(=O)O)C1` (stereo not drawn), for which the GI50 in the experiment with BT-549 is > 100 µM (inactive); with T47D, > 100 µM (inactive); with MDA-N, > 100 µM (inactive); in the experiment with HCT-15, > 100 µM; in the experiment on DU-145, > 100 µM (inactive); in the experiment with SF-295, > 100 µM (inactive). Besides, the GI50 with SK-MEL-2, in the experiment on SK-MEL-5, in the experiment with HOP-92, in the experiment with UACC-62, with RPMI-8226 and in the experiment with OVCAR-4 was > 100 µM (inactive) in each case. For the same compound, the GI50 with HCT-116, in the experiment on SF-268, with UACC-257, in the experiment on MDA-MB-435 and in the experiment on SNB-75 was > 100 µM (inactive) throughout.

As for `Cc1cccc(N2C(=O)C3c4[nH]c5ccccc5c4C4CCC(C(C)(C)C)CC4C3C2=O)c1` (stereo not drawn), the GI50 in the experiment on BT-549 was 19 µM (inactive); in the experiment on T47D, 26.5 µM (inactive); in the experiment on KM12, 11.9 µM (inactive); with MDA-N, 15.3 µM (inactive); with HCT-15, 29.4 µM; with DU-145, 12.4 µM (inactive). For the same compound, the GI50 is 9.29 µM (inactive) in the experiment with SF-295; 18.2 µM (inactive) in the experiment with SK-MEL-2; 15.1 µM (inactive) in the experiment on SK-MEL-5; 19.5 µM (inactive) in the experiment on UACC-62; 12.7 µM (inactive) in the experiment on RPMI-8226; 12.9 µM (inactive) with OVCAR-4. The GI50 is 9.29 µM (inactive) in the experiment on HCT-116, 4.27 µM (inactive) with SF-268, 18.7 µM (inactive) in the experiment on UACC-257 and 15.2 µM (inactive) with MDA-MB-435.

On to `[N-]=[N+]=CC(=O)C1CCN(c2ccccc2)C1=O` (stereo not drawn), for which the GI50 is > 10 µM (inactive) in the experiment with BT-549; > 10 µM (inactive) in the experiment on T47D; > 10 µM (inactive) in the experiment on KM12; > 10 µM (inactive) with MDA-N; > 10 µM (inactive) with HCC 2998; > 10 µM in the experiment with HCT-15. Moreover, the GI50 in the experiment with DU-145, in the experiment with SF-295, in the experiment on SK-MEL-2, in the experiment with SK-MEL-5, with UACC-62 and with RPMI-8226 was > 10 µM (inactive) each time. Besides, the GI50 in the experiment with OVCAR-4, in the experiment on HCT-116, in the experiment on SF-268, with UACC-257 and with MDA-MB-435 was > 10 µM (inactive) in each case.

On to `CN(C)CCCn1c2ccccc2c2cnccc21`, for which the GI50 in the experiment on BT-549 was 80.4 µM (inactive); in the experiment with T47D it was 70.8 µM (inactive); in the experiment with KM12, 43.2 µM (inactive); in the experiment on MDA-N, 25.2 µM (inactive); in the experiment on HCT-15, 43.7 µM; with DU-145, 43.9 µM (inactive). For the same compound, the GI50 is 46.5 µM (inactive) in the experiment with SF-295; 45.5 µM (inactive) in the experiment on SK-MEL-2; 19.7 µM (inactive) in the experiment with SK-MEL-5; 94.6 µM (inactive) with HOP-92; 40.4 µM (inactive) in the experiment on UACC-62; 26.7 µM (inactive) in the experiment with RPMI-8226. The GI50 in the experiment on OVCAR-4 is 39.6 µM (inactive); in the experiment with HCT-116, 19.7 µM (inactive); in the experiment on SF-268, 50.7 µM (inactive); in the experiment on UACC-257, 18.7 µM (inactive); with MDA-MB-435, 28.3 µM (inactive); in the experiment on SNB-75, 66.1 µM (inactive).

As to `Cc1ccc(O)c(-c2cc(-c3cccc(Cl)c3)c(C#N)c(N)n2)c1`, the GI50 in the experiment on BT-549 was 36.3 µM (inactive); in the experiment on T47D, 29.9 µM (inactive); in the experiment with KM12, 19.6 µM (inactive); in the experiment on MDA-N it was 14.5 µM (inactive); in the experiment on HCT-15 it was 12.2 µM; in the experiment on DU-145 it was 44.5 µM (inactive). For the same compound, the GI50 with SF-295 is 14.8 µM (inactive); in the experiment with SK-MEL-2 it was 13.2 µM (inactive); with SK-MEL-5, 14.4 µM (inactive); in the experiment on HOP-92, 13.1 µM (inactive); in the experiment with UACC-62, 16.1 µM (inactive); in the experiment on RPMI-8226 it was 19.6 µM (inactive). In addition, the GI50 is 15.9 µM (inactive) in the experiment on OVCAR-4, 16.2 µM (inactive) in the experiment with HCT-116, 18.6 µM (inactive) with SF-268 and 13.9 µM (inactive) in the experiment with MDA-MB-435.

As to `CCc1n[nH]c(=O)n1N1C(=O)C2CC=CCC2C1=O` (stereo not drawn), the GI50 in the experiment on BT-549 was > 100 µM (inactive); in the experiment with T47D, > 100 µM (inactive); with KM12 it was > 100 µM (inactive); in the experiment with MDA-N, > 100 µM (inactive); in the experiment on HCC 2998, > 100 µM (inactive); in the experiment on HCT-15, > 100 µM. Besides, the GI50 in the experiment on SF-295, in the experiment with SK-MEL-2, in the experiment on SK-MEL-5, in the experiment on HOP-92, with UACC-62 and in the experiment on RPMI-8226 was > 100 µM (inactive) throughout. For the same compound, the GI50 with OVCAR-4 is > 100 µM (inactive); with HCT-116 it was > 100 µM (inactive); in the experiment with SF-268, > 100 µM (inactive); in the experiment with UACC-257, > 100 µM (inactive); in the experiment with MDA-MB-435, > 100 µM (inactive); in the experiment on SNB-75, 39.1 µM (inactive).

`CC(C)CCCC(C)[C@H]1CC[C@H]2n3c(nc4ccccc43)CCC[C@]12C` (stereo partly drawn): the GI50 was 19.2 µM (inactive) in the experiment on BT-549; 15.4 µM (inactive) in the experiment on T47D; 19.7 µM (inactive) with KM12; 16.2 µM (inactive) in the experiment on MDA-N; 15 µM in the experiment on HCT-15; 22 µM (inactive) in the experiment on DU-145. In addition, the GI50 in the experiment with SF-295 was 16.8 µM (inactive); in the experiment with SK-MEL-2, 17.2 µM (inactive); in the experiment on SK-MEL-5 it was 16.4 µM (inactive); in the experiment with HOP-92 it was 17.7 µM (inactive); with UACC-62, 16.2 µM (inactive); with RPMI-8226, 10.8 µM (inactive). For the same compound, the GI50 with OVCAR-4 was 16 µM (inactive); in the experiment on HCT-116, 12.9 µM (inactive); in the experiment with SF-268 it was 20.3 µM (inactive); in the experiment with UACC-257, 20 µM (inactive); with MDA-MB-435 it was 19.3 µM (inactive); in the experiment with SNB-75, 14.6 µM (inactive).

For `CN1C(=O)c2c(c3c4ccccc4n(C4OC(CO)C(O)C(O)C4O)c3c3[nH]c4ccccc4c23)C1=O` (stereo not drawn), the GI50 was 4.99 µM (inactive) with BT-549; 3.85 µM (inactive) in the experiment on KM12; 2.14 µM (inactive) with MDA-N; 2.07 µM (inactive) in the experiment on HCC 2998; 4.82 µM in the experiment with HCT-15; 2.74 µM (inactive) in the experiment with DU-145. For the same compound, the GI50 in the experiment with SF-295 was 3.63 µM (inactive); with SK-MEL-2 it was 2.48 µM (inactive); in the experiment with SK-MEL-5 it was 1.36 µM (inactive); in the experiment on HOP-92, 1.08 µM (active); in the experiment with UACC-62, 1.46 µM (inactive); in the experiment on RPMI-8226, 16.1 µM (inactive). Besides, the GI50 is 2.37 µM (inactive) in the experiment on OVCAR-4; 0.718 µM (active) in the experiment on HCT-116; 0.541 µM (active) with SF-268; 2.49 µM (inactive) in the experiment on UACC-257; 2.29 µM (inactive) in the experiment with MDA-MB-435; 3.95 µM (inactive) with SNB-75.
